Patent publication US12594276B2, “Inhibitors of human immunodeficiency virus replication” (ViiV Healthcare UK (No.5) Limited, priority 2024, dated 2026)

How the values were obtained:
[1] = system: recombinant NL4-3 virus (nef section replaced with Renilla luciferase gene) in MT-2 cells; assay: HIV cell culture assay (antiviral activity, luciferase readout); assay type: cell-based; settings: Renilla, NL43, MT-2 cells infected for 4-5 days with recombinant NL4-3 Renilla luciferase virus
Method in brief: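 Compound activity was measured as reduction of luciferase in MT-2 cells infected for 4-5 days with serially diluted compound present. EC50 values were calculated with the median effect equation.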

[2] = Compound cytotoxicity, XTT-based colorimetric assay; assay type: cell-based; settings: human; uninfected MT2 cells, day 4, XTT; read-out: CC50
Method in brief: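 Cells seeded as for the antiviral assay but left uninfected (MT2). Compound exposure continued to day 4. XTT reagent added and colour read. CC50 calculated.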

Row | Structure (SMILES) | EC50 [1] [nM] | CC50 at 4 days [2] [nM]
1 | COCCN(CCOC)C(=O)Cn1nc(NS(C)(=O)=O)c2c(Cl)ccc(-n3c([C@H](Cc4cc(F)cc(F)c4)NC(=O)Cn4nc(C(F)F)c5c4C(F)(F)[C@@H]4C[C@H]54)nc4nc(C5CCC(F)(F)CC5)cc(C)c4c3=O)c21 (atropisomer, axis not shown; (P)) [Example 401, 2-[(6P)-4-chloro-7-[7-(4,4-difluorocyclohexyl)-2-[(1S)-1-{2-[(2S,4R)-9-(difluoromethyl)-5,5-difluoro-7,8-diazatricyclo[4.3.0.02, 4]nona-1(6),8-dien-7-yl]acetamido}-2-(3,5-difluorophenyl)ethyl]-5-methyl-4-oxo-3H,4H-pyrido[2,3-d]pyrimidin-3-yl]-3-methanesulfonamido-1H-indazol-1-yl]-N,N-bis(2-methoxyethyl)acetamide] | 0.012 | > 20
2 | CS(=O)(=O)Nc1nn(CCN2C[C@H]3C[C@@H]2CO3)c2c(-n3c([C@H](Cc4cc(F)cc(F)c4)NC(=O)Cn4nc(C5CC5)c5c4C[C@@H]4C[C@H]54)nc4nc(C5CCC(F)(F)CC5)cc(C(F)F)c4c3=O)ccc(Cl)c12 (atropisomer, axis not shown; (P)) [Example 298, N-[(1S)-1-[(3P)-3-(4-chloro-3-methanesulfonamido-1-{2-[(1R,4R)-2-oxa-5-azabicyclo[2.2.1]heptan-5-yl]ethyl}-1H-indazol-7-yl)-7-(4,4-difluorocyclohexyl)-5-(difluoromethyl)-4-oxo-3H,4H-pyrido[2,3-d]pyrimidin-2-yl]-2-(3,5-difluorophenyl)ethyl]-2-[(2S,4S)-9-cyclopropyl-7,8-diazatricyclo[4.3.0.0^2,^4]nona-1(6),8-dien-7-yl]acetamide] | 0.016 | > 50
3 | COCCCn1nc(NS(C)(=O)=O)c2c(Cl)ccc(-n3c([C@H](Cc4cc(F)cc(F)c4)NC(=O)Cn4nc(C5CC5)c5c4C[C@@H]4C[C@H]54)nc4nc(C5CCC(F)(F)CC5)cc(C)c4c3=O)c21 (atropisomer, axis not shown; (P)) [Example 87, N-[(1S)-1-[(3P)-3-[4-chloro-3-methanesulfonamido-1-(3-methoxypropyl)-1H-indazol-7-yl]-7-(4,4-difluorocyclohexyl)-5-methyl-4-oxo-3H,4H-pyrido[2,3-d]pyrimidin-2-yl]-2-(3,5-difluorophenyl)ethyl]-2-[(2S,4S)-9-cyclopropyl-7,8-diazatricyclo[4.3.0.0^2,^4]nona-1(6),8-dien-7-yl]acetamide] | 0.019 | > 50
4 | Cc1cc(C2CCC(F)(F)CC2)nc2nc([C@H](Cc3cc(F)cc(F)c3)NC(=O)Cn3nc(C4CC4)c4c3C[C@@H]3C[C@H]43)n(-c3ccc(Cl)c4c(NS(C)(=O)=O)nn(CCN5C[C@@H](C)OC(C)(C)C5)c34)c(=O)c12 (atropisomer, axis not shown; (P)) [Example 459, N-[(1S)-1-[(3P)-3-(4-chloro-3-methanesulfonamido-1-{2-[(6R)-2,2,6-trimethylmorpholin-4-yl]ethyl}-1H-indazol-7-yl)-7-(4,4-difluorocyclohexyl)-5-methyl-4-oxo-3H,4H-pyrido[2,3-d]pyrimidin-2-yl]-2-(3,5-difluorophenyl)ethyl]-2-[(2S,4S)-9-cyclopropyl-7,8-diazatricyclo[4.3.0.0^2,^4]nona-1(6),8-dien-7-yl]acetamide] | 0.005 | > 20
5 | Cc1cc(C2(F)CCC(F)(F)CC2)nc2nc([C@H](Cc3cc(F)cc(F)c3)NC(=O)Cn3nc(C4CC4)c4c3C[C@@H]3C[C@H]43)n(-c3ccc(Cl)c4c(NS(C)(=O)=O)nn(CCN5C[C@H](C)OC(C)(C)C5)c34)c(=O)c12 (atropisomer, axis not shown; (P)) [Example 583, N-[(1S)-1-[(3P)-3-(4-chloro-3-methanesulfonamido-1-{2-[(6S)-2,2,6-trimethylmorpholin-4-yl]ethyl}-1H-indazol-7-yl)-5-methyl-4-oxo-7-(1,4,4-trifluorocyclohexyl)-3H,4H-pyrido[2,3-d]pyrimidin-2-yl]-2-(3,5-difluorophenyl)ethyl]-2-[(2S,4S)-9-cyclopropyl-7,8-diazatricyclo[4.3.0.0^2,^4]nona-1(6),8-dien-7-yl]acetamide] | 0.031 | > 20
6 | Cc1cc(C2(F)CCC(F)(F)CC2)nc2nc([C@H](Cc3cc(F)cc(F)c3)NC(=O)Cn3nc(C4CC4)c4c3C[C@@H]3C[C@H]43)n(-c3ccc(Cl)c4c(NS(C)(=O)=O)nn(CCN5C[C@@H](C)OC(C)(C)C5)c34)c(=O)c12 (atropisomer, axis not shown; (P)) [Example 584, N-[(1S)-1-[(3P)-3-(4-chloro-3-methanesulfonamido-1-{2-[(6R)-2,2,6-trimethylmorpholin-4-yl]ethyl}-1H-indazol-7-yl)-5-methyl-4-oxo-7-(1,4,4-trifluorocyclohexyl)-3H,4H-pyrido[2,3-d]pyrimidin-2-yl]-2-(3,5-difluorophenyl)ethyl]-2-[(2S,4S)-9-cyclopropyl-7,8-diazatricyclo[4.3.0.0^2,^4]nona-1(6),8-dien-7-yl]acetamide] | 0.015 | > 20
7 | COCCCn1nc(NS(C)(=O)=O)c2c(Cl)ccc(-n3c([C@H](Cc4cc(F)cc(F)c4)NC(=O)Cn4nc(C(F)F)c5c4C(F)(F)[C@@H]4C[C@H]54)nc4nc(C5CCC(F)(F)CC5)cc(NCCC5CCCCC5)c4c3=O)c21 (atropisomer, axis not shown; (P)) [Example 549, N-[(1S)-1-[(3P)-3-[4-chloro-3-methanesulfonamido-1-(3-methoxypropyl)-1H-indazol-7-yl]-5-[(2-cyclohexylethyl)amino]-7-(4,4-difluorocyclohexyl)-4-oxo-3H,4H-pyrido[2,3-d]pyrimidin-2-yl]-2-(3,5-difluorophenyl)ethyl]-2-[(2S,4R)-9-(difluoromethyl)-5,5-difluoro-7,8-diazatricyclo[4.3.0.0^2,^4]nona-1(6),8-dien-7-yl]acetamide] | 0.258 | > 20
8 | COCCCn1nc(NS(C)(=O)=O)c2c(Cl)ccc(-n3c([C@H](Cc4cc(F)cc(F)c4)NC(=O)Cn4nc(C(F)F)c5c4C(F)(F)[C@@H]4C[C@H]54)nc4nc(C5CCC(F)(F)CC5)cc(NCC5(C)CCOCC5)c4c3=O)c21 (atropisomer, axis not shown; (P)) [Example 485, N-[(1S)-1-[(3P)-3-[4-chloro-3-methanesulfonamido-1-(3-methoxypropyl)-1H-indazol-7-yl]-7-(4,4-difluorocyclohexyl)-5-{[(4-methyloxan-4-yl)methyl]amino}-4-oxo-3H,4H-pyrido[2,3-d]pyrimidin-2-yl]-2-(3,5-difluorophenyl)ethyl]-2-[(2S,4R)-9-(difluoromethyl)-5,5-difluoro-7,8-diazatricyclo[4.3.0.0^2,^4]nona-1(6),8-dien-7-yl]acetamide] | 0.016 | > 20
